Experimental data published in patent US20120196899A1, “METHODS AND PRODUCTS FOR TREATING INFLAMMATION” (Rock Creek Pharmaceuticals, Inc., priority 2010, published 2012).

Tests used:
[1] = nicotine 1.25 mg/kg (1 female) and 1.0 mg/kg (3 females) single i.v.
Method: One control group of animals received a single i.v. dose of the vehicle at 5 mL/kg. Ten rats (5 males and 5 females) were dosed per group. […] One female received a single i.v. dose of 1.25 mg/kg, and 3 females received a single i.v. dose of 1.0 mg/kg.
Following the tolerability study, an additional group was added to the study. […] All animals were observed daily. Body weight and food consumption was measured daily, with any abnormal observations noted. Average daily body weights and food consumption was tabulated with standard deviation calculated.

7W CHO cells = test: Toxicity in 7W CHO cells; format: cell-based
[2] = Physical signs after oral multi-dose administration; format: in vivo, Sprague-Dawley rats; settings: 0.6 or 6.0 mg/kg BW p.o. in three divided doses
Description: The physical signs of each animal were monitored following administration of the test compound.

[3] = system: Experimental Autoimmune Thyroiditis; test: Experimental Autoimmune Thyroiditis (Example 16A): serum antibodies to PPD and thyroglobulin; format: in vivo, mice
Method: Thyroiditis was induced by injection of thyroglobulin emulsified in complete Freund's adjuvant (CFA). On days 0 and 7, female mice received subcutaneous injection of 100 μg thyroglobulin (2 injections of 50 μg each). Control mice drank water. […] Mice were sacrificed on day 21.
Immunochemistry. Serum from control and anatabine-treated mice was examined to determine levels of antibodies to a foreign antigen (PPD).
Levels of antibodies to thyroglobulin were examined on days 7, 14, and 21 after immunization.

**Q.** With `CN1CCCC1c1cccnc1.O=C(O)C(O)C(O)C(=O)O` (single isomer, unassigned; (-)) [Nicotine, (−) Nicotine hydrogen tartrate, reference compound] as the compound, how does the “clinical signs in tolerability study” value [1] read?
**A.** experienced severe tremors upon completion of dosing, but all returned to normal by 20 minutes post dose

**Q.** With `C1=CCC(c2cccnc2)NC1` (racemic) [Anatabine, 1,2,3,6-tetrahydro-[2,3′]bipyridinyl] as the compound, how does the toxicity (7W CHO cells) read?
**A.** No toxicity was observed

**Q.** What about the adverse signs [2] of the same compound?
**A.** no adverse signs were observed

**Q.** What about the “levels of antibodies to PPD” value ([3]; 0.05 mg/ml in drinking water, versus control) of the same compound?
**A.** no significant difference

**Q.** What about the “levels of antibodies to thyroglobulin” value ([3]; day 7) of the same compound?
**A.** no significant difference

**Q.** What about the “levels of antibodies to thyroglobulin” value ([3]; day 14, p=0.086) of the same compound?
**A.** tended to have lower thyroglobulin antibodies

**Q.** And the “levels of antibodies to thyroglobulin” value ([3]; day 21)?
**A.** no significant difference
